Results taken from patent publication US12319655B2, “RAF kinase inhibitors and methods of use thereof” (Deciphera Pharmaceuticals, LLC, priority 2021, dated 2025).

Legend:
[1] = target: C-Raf kinase (SEQ. ID NO: 3) (Homo sapiens (Human), UniProt P04049, Y340D/Y341D); experiment: Biochemical Assay for C-Raf (2); conditions: Table J, biochemical assay (2); read-out: CRAF (2)
Procedure: Biochemical Assay for C-Raf (2)
Activity of C-Raf kinase (SEQ. ID NO: 3) was determined spectroscopically using a coupled pyruvate kinase/lactate dehydrogenase assay that continuously monitors the ATP hydrolysis-dependent oxidation of NADH (e.g., Schindler et al., Science, 2000, 289, 1938-1942). Assays were conducted in 384-well plates (25 μL final volume) using 3.84 nM C-Raf (Eurofins), 1.5 units pyruvate kinase, 2.1 units lactate dehydrogenase, 1 mM phosphoenol pyruvate, 0.7 mM NADH, 50 nM MEK (SignalChem), and 1 mM ATP in assay buffer (100 mM Tris, pH 7.5, 15 mM MgCl2, 0.5 mM DTT, 0.1% octyl-glucoside, 0.002% (w/v) BSA, and 0.002% Triton X-100). Inhibition of C-Raf was measured by adding serial diluted test compound (final assay concentration of 1% DMSO). A decrease in absorption at 340 nm was monitored hourly for 4 h at 30° C. on a multi-mode microplate reader (BioTek). The reaction rate was calculated using the 2 to 3 h time frame. The reaction rate at each concentration of compound was converted to percent inhibition using controls (i.e., reaction with no test compound and reaction with a known inhibitor) and IC50 values were calculated by fitting a four-parameter sigmoidal curve to the data using Prism (GraphPad software).

[2] = target: B-Raf (V600E) (SEQ. ID NO: 4) kinase (Homo sapiens (Human), UniProt P15056, V600E); experiment: Biochemical Assay for B-Raf (V600E) (2); conditions: Table J, BRAF V600E, biochemical assay (2); read-out: BRAF VE (2)
Procedure: Biochemical Assay for B-Raf (V600E) (2)
Activity of B-Raf (V600E) (SEQ. ID NO: 4) kinase was determined spectroscopically using a coupled pyruvate kinase/lactate dehydrogenase assay that continuously monitors the ATP hydrolysis-dependent oxidation of NADH (e.g., Schindler et al., Science, 2000, 289, 1938-1942). Assays were conducted in 384-well plates (25 μL final volume) using 0.5 nM B-Raf (deCode), 1.5 units pyruvate kinase, 2.1 units lactate dehydrogenase, 1 mM phosphoenol pyruvate, 0.7 mM NADH, 100 nM MEK (SignalChem), and 1 mM ATP in assay buffer (100 mM Tris, pH 7.5, 15 mM MgCl2, 0.5 mM DTT, 0.1% octyl-glucoside, 0.002% (w/v) BSA, and 0.002% Triton X-100). Inhibition of B-Raf (V600E) was measured by adding serial diluted test compound (final assay concentration of 1% DMSO). A decrease in absorption at 340 nm was monitored hourly for 4 h at 30° C. on a multi-mode microplate reader (BioTek). The reaction rate was calculated using the 3 to 4 h time frame. The reaction rate at each concentration of compound was converted to percent inhibition using controls (i.e., reaction with no test compound and reaction with a known inhibitor) and IC50 values were calculated by fitting a four-parameter sigmoidal curve to the data using Prism (GraphPad software).

[3] = target: A-Raf kinase (SEQ. ID No: 1) (Homo sapiens (Human), UniProt P10398, Y301D/Y302D); experiment: Biochemical Assay for A-Raf (2); conditions: Table J, biochemical assay (2); read-out: ARAF (2)
Procedure: Biochemical Assay for A-Raf (2)
Activity of A-Raf kinase (SEQ. ID No: 1) was determined spectroscopically using a coupled pyruvate kinase/lactate dehydrogenase assay that continuously monitors the ATP hydrolysis-dependent oxidation of NADH (e.g., Schindler et al., Science, 2000, 289, 1938-1942). Assays were conducted in 384-well plates (25 μL final volume) using 20 nM A-Raf (Eurofins), 1.5 units pyruvate kinase, 2.1 units lactate dehydrogenase, 1 mM phosphoenol pyruvate, 0.7 mM NADH, 100 nM MEK (SignalChem), and 1 mM ATP in assay buffer (100 mM Tris, pH 7.5, 15 mM MgCl2, 0.5 mM DTT, 0.1% octyl-glucoside, 0.002% (w/v) BSA, and 0.002% Triton X-100). Inhibition of A-Raf was measured by adding serial diluted test compound (final assay concentration of 1% DMSO). A decrease in absorption at 340 nm was monitored hourly for 4 h at 30° C. on a multi-mode microplate reader (BioTek). The reaction rate was calculated using the 3 to 4 h time frame. The reaction rate at each concentration of compound was converted to percent inhibition using controls (i.e., reaction with no test compound and reaction with a known inhibitor) and IC50 values were calculated by fitting a four-parameter sigmoidal curve to the data using Prism (GraphPad software).

[4] = tested on: WM3928 cells; experiment: WM3928 Cell Proliferation Assay (2); assay type: cell-based
Procedure: WM3928 Cell Proliferation Assay (2)
WM3928 cells (#WM3928-01-0001) are obtained from Rockland Immunochemicals Inc (Gilbertsville, PA). Briefly, cells were grown in MCDB 153 medium (Sigma, #M7403, St. Louis, MO) supplemented with 20% Leibovitz's L-15 (ThermoFisher #11415-064, Waltham, MA), 2% heat inactivated fetal bovine serum (ThermoFisher, #A3840001, Waltham, MA), 5 μg/mL Insulin (Bovine Pancreas) (Sigma, #10516, St. Louis, MO), 1.68 mM Calcium Chloride (Sigma, #C-34006, St. Louis, MO) and 1% Penicillin/Streptomycin/L-Glutamine (ThermoFisher #10378016, Waltham, MA) at 37° C., 5% CO2, and 95% humidity. Cells are expanded until reaching 70-95% confluency at which point they are sub-cultured or harvested for assay use. Using the Beckman Coulter Echo 650, a serial dilution of test compound is dispensed into a 384-well black clear bottom plate in triplicate. Seven hundred fifty cells are added per well in 50 μL complete growth medium in the 384-well plate. Plates are incubated for 67-72 hours at 37° C., 5% CO2, and 95% humidity. At the end of the incubation, 10 μL of a 440 μM solution of resazurin (Sigma, #199303, St. Louis, MO) in PBS is added to each well of the plate and plates are incubated for an additional 3-6 hours at 37° C., 5% CO2, and 95% humidity. Plates are read on a Synergy2 or equivalent reader (Biotek, Winooski VT) using an excitation of 540 nm and an emission of 600 nm. Data is analyzed using Prism software (GraphPad, San Diego, CA) to calculate IC50 values.

Sequence of A-Raf kinase (SEQ. ID No: 1) (P10398 other isoform, or with tags, fused parts or gaps Y301D (already in the parent)/Y302D (already in the parent)): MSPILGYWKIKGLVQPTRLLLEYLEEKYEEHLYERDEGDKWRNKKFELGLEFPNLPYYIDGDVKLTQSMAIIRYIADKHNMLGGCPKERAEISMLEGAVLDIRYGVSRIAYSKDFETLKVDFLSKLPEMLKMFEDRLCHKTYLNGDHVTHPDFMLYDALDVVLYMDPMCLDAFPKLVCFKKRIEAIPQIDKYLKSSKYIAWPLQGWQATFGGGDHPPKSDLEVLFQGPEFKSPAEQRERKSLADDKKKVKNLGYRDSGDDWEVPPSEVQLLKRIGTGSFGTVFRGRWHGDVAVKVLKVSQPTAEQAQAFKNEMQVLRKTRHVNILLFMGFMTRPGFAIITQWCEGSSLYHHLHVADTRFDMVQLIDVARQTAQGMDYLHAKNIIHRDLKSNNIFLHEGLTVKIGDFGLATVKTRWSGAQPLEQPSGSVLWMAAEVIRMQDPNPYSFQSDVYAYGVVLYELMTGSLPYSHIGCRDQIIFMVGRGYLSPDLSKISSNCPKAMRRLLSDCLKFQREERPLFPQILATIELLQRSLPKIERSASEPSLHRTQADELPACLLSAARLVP
Sequence of B-Raf (V600E) (SEQ. ID NO: 4) kinase (P15056 416-766 V600E): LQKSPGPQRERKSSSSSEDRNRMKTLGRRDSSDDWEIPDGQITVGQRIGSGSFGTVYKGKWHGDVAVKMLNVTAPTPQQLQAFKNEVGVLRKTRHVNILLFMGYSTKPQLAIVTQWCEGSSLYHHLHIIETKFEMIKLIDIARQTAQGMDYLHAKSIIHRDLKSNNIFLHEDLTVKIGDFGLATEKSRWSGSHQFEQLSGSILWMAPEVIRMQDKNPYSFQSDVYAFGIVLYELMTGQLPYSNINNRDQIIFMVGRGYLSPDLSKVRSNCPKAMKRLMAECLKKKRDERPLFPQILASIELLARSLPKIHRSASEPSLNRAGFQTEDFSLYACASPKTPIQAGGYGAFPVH
Sequence of C-Raf kinase (SEQ. ID NO: 3) (P04049 307-648 Y340D/Y341D): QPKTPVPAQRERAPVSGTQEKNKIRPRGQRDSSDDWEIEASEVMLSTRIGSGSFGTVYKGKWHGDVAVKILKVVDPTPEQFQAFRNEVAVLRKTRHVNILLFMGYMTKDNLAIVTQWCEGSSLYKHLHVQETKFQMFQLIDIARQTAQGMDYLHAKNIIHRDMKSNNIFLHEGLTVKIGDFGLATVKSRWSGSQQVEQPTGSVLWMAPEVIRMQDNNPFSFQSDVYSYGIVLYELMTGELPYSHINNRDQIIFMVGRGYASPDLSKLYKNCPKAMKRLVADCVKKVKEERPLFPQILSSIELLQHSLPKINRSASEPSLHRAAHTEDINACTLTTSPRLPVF

Row | IC50 [1] | IC50 [2] | IC50 [3] | SMILES | IC50 [4]
1 | ≤ 100 nM | ≤ 100 nM | 1000 to 10000 nM | CNC(=O)c1cc(-c2cc(-c3cc(NC(=O)c4ccnc(C(C)(C)F)c4)ccc3C)cnn2)ccn1 [Example 473] | ≤ 100 nM
2 | ≤ 100 nM | ≤ 100 nM | 500 to 1000 nM | CNC(=O)c1cc(-c2cc(-c3cc(NC(=O)c4ccnc(C(C)(C)F)c4)ccc3C)ncn2)ccn1 [Example 474] | ≤ 100 nM
3 | 1000 to 10000 nM | 1000 to 10000 nM | 1000 to 10000 nM | CNC(=O)c1cc(-c2cc(-c3cc(F)cc(NC(=O)c4ccnc(C(C)(C)F)c4)c3F)ccn2)ccn1 [Example 475] | 1000 to 10000 nM
4 | ≤ 100 nM | ≤ 100 nM | 500 to 1000 nM | Cc1ccc(NC(=O)c2ccnc(C(C)(C)F)c2)cc1-c1ccnc(-c2ccnc(C(N)=O)c2)c1 [Example 476] | ≤ 100 nM
5 | ≤ 100 nM | 100 to 500 nM | 1000 to 10000 nM | CNC(=O)c1cc(-c2cc(-c3cc(NC(=O)c4cnnc(C(F)(F)F)c4)ccc3C)ccn2)ccn1 [Example 477] | 500 to 1000 nM
6 | 100 to 500 nM | ≤ 100 nM | 1000 to 10000 nM | CNC(=O)c1cc(-c2cc(-c3cc(NC(=O)c4ccnc(C(C)(C)F)c4)cc(F)c3F)ccn2)ccn1 [Example 478] | 100 to 500 nM
7 | ≤ 100 nM | 100 to 500 nM | 100 to 500 nM | CNC(=O)c1cc(-c2cc(-c3cc(NC(=O)c4ccnc(C(C)(C)F)c4)ccc3F)ccn2)ccn1 [Example 479] | ≤ 100 nM
8 | 100 to 500 nM | ≤ 100 nM | 1000 to 10000 nM | CNC(=O)c1cc(-c2cc(-c3cc(NC(=O)c4ccnc(C(C)(C)F)c4)cc(F)c3C)ccn2)ccn1 [Example 480] | ≤ 100 nM
9 | 500 to 1000 nM | 1000 to 10000 nM | 1000 to 10000 nM | CNC(=O)c1cc(-c2cc(-c3cc(NC(=O)c4ccnc(C(C)(C)F)c4)ccn3)ccn2)ccn1 [Example 481] | 1000 to 10000 nM
10 | ≤ 100 nM | ≤ 100 nM | 500 to 1000 nM | CNC(=O)c1cc(-c2cc(-c3cc(NC(=O)c4ccnc(C(C)(C)F)c4)c(F)cc3F)ccn2)ccn1 [Example 482] | 100 to 500 nM
11 | ≤ 100 nM | 100 to 500 nM | 1000 to 10000 nM | Cc1cc(-c2cc(NC(=O)c3ccnc(C(C)(C)F)c3)ccc2C)cc(-c2ccnc(C#N)c2)n1 [Example 483] | 500 to 1000 nM
12 | ≤ 100 nM | ≤ 100 nM | 500 to 1000 nM | Cc1cc(-c2cc(NC(=O)c3ccnc(C(C)(C)F)c3)ccc2C)cc(-c2ccnc(C(N)=O)c2)n1 [Example 484] | ≤ 100 nM

More lines, now with the values behind:

Row | SMILES | IC50 [1] | IC50 [2] | IC50 [3] | IC50 [4]
13 | CNC(=O)c1cc(-c2cc(-c3cc(NC(=O)c4ccnc(C(C)C)c4)cnc3C)ccn2)ccn1 [Example 465] | ≤ 100 nM | ≤ 100 nM | 1000 to 10000 nM | 100 to 500 nM
14 | Cc1ncc(NC(=O)c2ccnc(C(C)(F)F)c2)cc1-c1ccnc(-c2ccnc(NC(=O)C3CC3)c2)c1 [Example 466] | ≤ 100 nM | ≤ 100 nM | 500 to 1000 nM | ≤ 100 nM
15 | Cc1ccc(NC(=O)c2ccnc(C(C)C)c2)cc1-c1ccnc(-c2ccnc(NC(=O)C3CC3)c2)c1 [Example 467] | ≤ 100 nM | ≤ 100 nM | 100 to 500 nM | ≤ 100 nM
16 | Cc1ncc(NC(=O)c2ccnc(C(C)C)c2)cc1-c1ccnc(-c2ccnc(NC(=O)C3CC3)c2)c1 [Example 468] | ≤ 100 nM | ≤ 100 nM | 100 to 500 nM | ≤ 100 nM
17 | CNC(=O)c1cc(-c2cc(-c3cc(NC(=O)c4ccnc(C(C)(C)F)c4)ccc3C)c(F)cn2)ccn1 [Example 469] | ≤ 100 nM | ≤ 100 nM | 1000 to 10000 nM | 100 to 500 nM
18 | CNC(=O)c1cc(-c2cc(-c3cc(NC(=O)c4ccnc(C(C)(C)F)c4)ccc3C)cc(C)n2)ccn1 [Example 470] | ≤ 100 nM | ≤ 100 nM | 1000 to 10000 nM | ≤ 100 nM
19 | CNC(=O)c1cc(-c2cc(-c3cc(NC(=O)c4ccnc(C(C)(C)F)c4)ccc3C(F)(F)F)ccn2)ccn1 [Example 471] | 1000 to 10000 nM | 1000 to 10000 nM | 100 to 500 nM | 1000 to 10000 nM
20 | CNC(=O)c1cc(-c2cc(-c3cc(NC(=O)c4ccnc(C(C)(C)F)c4)ccc3C)c(C)cn2)ccn1 [Example 472] | 500 to 1000 nM | ≤ 100 nM | 1000 to 10000 nM | 500 to 1000 nM
